# Values joined by “and” are separate entries in the source; they are usually repeats but may differ in a detail not shown here. Equal values may be shown once.
# Assays:
# [1] = system: E. cloacae clinical strains; experiment: Antibacterial susceptibility studies (MIC50 and MIC90) with clinical strains, CLSI guidelines; assay type: cell-based
# [2] = system: P. aeruginosa [ATCC27853]; experiment: Neutropenic lung infection model in rat; assay type: in vivo; conditions: 30 mg/kg, i.v. bolus, neutropenic rat, 24 h post infection
# Description: The purpose of this study was to evaluate the efficacy of example 15 against P. aeruginosa [ATCC27853], following single dose intravenous infusion doses of 10, 30 and 100 mg/kg in a neutropenic lung infection model in rats
# Prior to the start of the infection process, all animals were divided into different groups. All grouped cages of animals were carried to a procedure room, close to a biological safety cabinet. All infections were conducted in a biological safety cabinet, with appropriate personnel protection. Animals were placed into an induction chamber and anaesthesia was induced by exposing the animals to 3-5% Isoflurane in an oxygen flow set at approximately (˜) 1 liter per minute (LPM). Once the animals were in a sufficiently deep plane of anaesthesia as monitored by pedal reflex, they were removed and infected (2). […] A gentle mixing of inoculum between two animals was followed for uniform distribution.
# The IV formulation vehicle used for example 15 was 10% of L-ascorbic acid in fresh MilliQ water (w/v) with pH adjusted to ˜4.0 with 1N Sodium hydroxide solution (w/v), and the dose volume was 10 mL/kg. Meropenem was formulated in saline. […] The dose levels of the test Example 15 were 10, 30 and 100 mg/kg.
# All the animals in groups were sacrificed at 24 h post infection, as specified in experimental design, by an overdose of CO2 in an appropriate exposure chamber. The group 1 animals were sacrificed at 4 hrs post infection. The euthanized animals were dipped into 70% ethanol for surface decontamination. Entire Lung was aseptically isolated, weighed and placed into 1 mL of sterile CSDB broth, and homogenized (Omni Tip (220 V hand held)). Serial ten-fold dilutions of the lungs homogenates were prepared in sterile CSD broth and 0.05 mL of four dilutions for each tissue was plated onto CSDA agar plates. Bacterial colonies were enumerated following overnight incubation at 37° C. Bacterial densities were estimated as Log10 CFU/g lung. The Mean±SD Log10 CFU/g lung was estimated in each group. Significant differences between group means and control were analyzed by one way ANOVA, followed by a Dunnett's multiple comparison test, using Graphpad Prism at 95% confidence levels.
# [3] = system: P. aeruginosa clinical strains; experiment: Antibacterial susceptibility studies (MIC50 and MIC90) with clinical strains, CLSI guidelines; assay type: cell-based
# [4] = system: E. coli clinical strains; experiment: as above; assay type: cell-based
# [5] = system: E. coli [ATCC25922]; experiment: Urinary tract infection (UTI) rat model; assay type: in vivo; conditions: 30 mg/kg, i.v. bolus, rat UTI, 24 h post infection
# Description: The purpose of this study is to assess the efficacy of Example 15 against E. coli [ATCC25922] following single dose intravenous infusion doses of 3, 10 and 30 mg/kg in a Urinary Tract Infection Rat Model
# Prior to the start of the infection process all animals were divided into different groups. All grouped cages of animals were carried to a procedure room, close to a biological safety cabinet. All infections were conducted in a biological safety cabinet, with appropriate personnel protection. Animals were anaesthetized by intraperitoneal injection of ketamine & xylazine (60+10 mg/kg i.p.) cocktail. Once the animals were in a sufficiently deep plane of anaesthesia as monitored by pedal reflex, the abdominal wall of each rat was shaved with electric clippers and the skin was cleansed with 10% povidine iodine. After a 1.5 to 2 cm lower abdominal wall incision, the abdominal wall muscles were separated with blunt dissection. […] After the replacement of the bladder to its original location, the abdominal muscles were approximated using suture and the skin was closed. The wounds were cleansed using 10% povidine iodine.
# The IV formulation vehicle used was 10% of L-ascorbic acid in fresh MilliQ water (w/v) with pH adjusted to 4.0 with 1N Sodium hydroxide solution (w/v), and the dose volume was 10 mL/kg. Meropenem was prepared in MilliQ water and the pH of solution was adjusted to 4.5 using HCl. Four hours post infection, animals were dosed intravenously, as single doses (for test compounds), as a constant rate infusion, under Ketamine 60 mg/kg IP+Xylazine 10 mg/kg IP anesthesia, at a dose volume of 10 ml/kg, at the rate of 0.03 ml/min. The dose levels of the test compounds were 3, 10 and 30 mg/kg. Meropenem was administered as a single bolus dose at a dose volume of 5 ml/kg. All the animals were sacrificed at 24 h post infection, as specified in experimental design, by an overdose of CO2 in an appropriate exposure chamber. The group 1 animals were sacrificed at 4 h post infection.
# The euthanized animals were dipped into 70% ethanol for surface decontamination. The organs were removed aseptically; the bladder was cut away near the urethra, and the kidneys were removed by blunt dissection to avoid bleeding. The bladder and each kidney separately were be homogenized in PBS. The CFU per milliliter homogenate of bladder, & kidney were determined after 18 to 24 h of incubation at 37° C.
# [6] = system: A. baumannii clinical strains; experiment: Antibacterial susceptibility studies (MIC50 and MIC90) with clinical strains, CLSI guidelines; assay type: cell-based
# [7] = system: K. pneumoniae clinical strains; experiment: as above; assay type: cell-based
# [8] = Enterobacter cloacae, E. cloacae clinical strains (88 strains)
compound,measurement,setting,value
"C[C@@H](O)[C@H]1C(=O)N2C(C(=O)O)=C(S[C@@H]3CN[C@H](C(=O)N(C)C)C3)[C@H](C)[C@H]12 [Meropenem, reference compound]",MIC50,[1]; [8],0.25 µg/mL
same,MIC90,[1]; [8],16 µg/mL
same,Minimum,"[1]; lowest MIC among E. cloacae clinical strains (88 strains), no unit in this line",0.06
same,MEAN ± SD (Log 10 CFU/g Lung),[2],5.04 ± 0.14 Log 10 CFU/g Lung
same,Mean Log 10CFU/g lung reduction (wrt 4 h PI control 5.78 Log10CFU/g lung),[2],0.74 Log10CFU/g lung
same,Log 10 CFU/g Lung,[2]; individual animals,5.03 Log 10 CFU/g Lung and 5.18 Log 10 CFU/g Lung and 4.90 Log 10 CFU/g Lung
same,MIC ATCC27853,"[3]; P. aeruginosa reference strain ATCC27853, no unit in this line",0.5 µg/mL
same,MIC50,[3]; Pseudomonas aeruginosa,2 µg/mL
same,MIC90,[3]; Pseudomonas aeruginosa,8 µg/mL
same,Minimum,"[3]; lowest MIC among P. aeruginosa clinical strains (215 strains; Example 15: 176), no unit in this line",0.03
same,MIC ATCC25922,"[4]; E. coli reference strain ATCC25922, no unit in this line (MIC50/MIC90 lines: μg/ml)",0.06 µg/mL
same,MIC50,[4]; Escherichia coli,0.06 µg/mL
same,MIC90,[4]; Escherichia coli,4 µg/mL
same,Minimum,"[4]; lowest MIC among E. coli clinical strains (201 strains; Example 15: 176), no unit in this line",0.03
same,MEAN ± SD (Log10 CFU/g kidneys),[5],4.41 ± 0.70 Log10 CFU/g kidneys
same,Mean Log10 CFU/g kidney reduction (wrt 4 h PI control: 6.03 Log10 CFU/g kidneys),[5],1.62 Log10 CFU/g kidneys
same,MEAN ± SD (Log 10 CFU/ml Bladder),[5]; bladder,4.34 ± 0.32 Log 10 CFU/ml
same,Mean Log10 CFU/ml Bladder reduction (wrt 4 h PI control: 6.49 CFU/ml Bladder),[5]; bladder,2.15 Log10 CFU/ml
same,Log10 CFU/g (Left Kidney),[5]; individual animals,4.62 Log10 CFU/g and 4.41 Log10 CFU/g and 5.19 Log10 CFU/g
same,Log10 CFU/g (Right Kidney),[5]; individual animals,4.83 Log10 CFU/g and 3.13 Log10 CFU/g and 4.28 Log10 CFU/g
same,Log 10 CFU/ml Bladder,"[5]; individual animals, bladder",4.43 Log 10 CFU/ml and 4.62 Log 10 CFU/ml and 3.99 Log 10 CFU/ml
same,MIC ATCC19606,"[6]; A. baumannii reference strain ATCC19606, no unit in this line",0.5 µg/mL
same,MIC50,[6]; Acinetobacter baumannii,8 µg/mL
same,MIC90,[6]; Acinetobacter baumannii,32 µg/mL
same,Minimum,"[6]; lowest MIC among A. baumannii clinical strains (169 strains; Example 15: 132), no unit in this line",0.03125
same,MIC ATCC13883,"[7]; K. pneumoniae reference strain ATCC13883, no unit in this line",0.06 µg/mL
same,MIC50,[7]; Klebsiella pneumoniae,1 µg/mL
same,MIC90,[7]; Klebsiella pneumoniae,16 µg/mL
same,Minimum,"[7]; lowest MIC among K. pneumoniae clinical strains (211 strains; Example 15: 176), no unit in this line",0.03

# — US10912780B2, “Heterocyclic compounds useful as anti-bacterial agents and method for production thereof” (Bugworks Research, Inc., priority 2017, dated 2021)
